According to patent publication US20230322792A1, “CDK9 INHIBITORS” (Biolexis Therapeutics, Inc., priority 2022, published 2023):

The molecules below were run against CDK9/CycT1 (Homo sapiens (Human), UniProt P50750) (assay: ADP-Glo Kinase Assay).
Sequence of CDK9/CycT1 (P50750 whole entry): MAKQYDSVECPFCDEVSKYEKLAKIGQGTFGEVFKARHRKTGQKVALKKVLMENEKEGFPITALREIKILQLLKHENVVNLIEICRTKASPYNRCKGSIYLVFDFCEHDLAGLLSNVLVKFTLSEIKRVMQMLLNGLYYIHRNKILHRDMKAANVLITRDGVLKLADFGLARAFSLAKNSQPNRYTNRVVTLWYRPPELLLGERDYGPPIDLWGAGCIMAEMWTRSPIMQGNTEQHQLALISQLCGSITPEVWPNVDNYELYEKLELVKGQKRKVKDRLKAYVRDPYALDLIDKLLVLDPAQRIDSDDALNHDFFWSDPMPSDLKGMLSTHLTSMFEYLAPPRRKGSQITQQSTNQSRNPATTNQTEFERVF
Sequence of CDK9/CycT1 (O60563 whole entry partner): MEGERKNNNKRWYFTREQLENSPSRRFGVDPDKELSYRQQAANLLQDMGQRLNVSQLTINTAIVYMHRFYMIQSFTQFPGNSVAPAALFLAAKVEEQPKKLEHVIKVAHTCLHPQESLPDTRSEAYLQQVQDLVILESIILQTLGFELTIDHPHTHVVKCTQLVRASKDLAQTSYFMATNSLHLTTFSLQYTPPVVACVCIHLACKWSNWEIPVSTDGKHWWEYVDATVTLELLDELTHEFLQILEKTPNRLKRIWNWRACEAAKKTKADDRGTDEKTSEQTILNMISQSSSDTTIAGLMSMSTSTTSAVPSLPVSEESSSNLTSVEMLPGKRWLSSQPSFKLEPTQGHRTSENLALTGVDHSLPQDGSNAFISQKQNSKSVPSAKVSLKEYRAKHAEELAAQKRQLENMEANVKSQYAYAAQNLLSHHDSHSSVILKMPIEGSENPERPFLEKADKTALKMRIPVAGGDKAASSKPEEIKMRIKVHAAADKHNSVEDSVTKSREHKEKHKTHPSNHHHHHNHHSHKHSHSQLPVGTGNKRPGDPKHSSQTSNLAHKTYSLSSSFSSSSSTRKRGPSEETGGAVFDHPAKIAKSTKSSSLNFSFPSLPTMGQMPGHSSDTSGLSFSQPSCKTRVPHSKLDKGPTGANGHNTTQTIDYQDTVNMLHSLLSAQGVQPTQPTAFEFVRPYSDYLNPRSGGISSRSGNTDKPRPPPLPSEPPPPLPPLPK
Format: biochemical
Description: ADP-Glo assay kit was purchased from Promega and the CDK9/CycT1 protein and PDKtide substrate were purchased from SignalChem. […] The reaction is started by pre-incubating 4 μL of protein (20 nM), 2 μL of substrate (100 μM), and 2 μL of serial diluted drug in 1× assay buffer (50 mM HEPES, 3 mM MgCl2, 3 mM MnCl2, and 1 mM DTT) for 30 minutes. After pre-incubating, 4 μL of ATP (1 μM) is added to each well and incubated for an additional 90 minutes. The ADP-Glo Reagent (10 μL) and Kinase Detection Reagent (20 μL) are added to each well and incubated as recommended by Promega. The reaction is quantified by measuring luminescence and the IC50 is calculated using GraphPad Prism software.
For `O[C@@H]1CNCC[C@H]1CNc1nccc(-c2ccn3ncc(C4CC4)c3n2)n1` (relative stereo) [Compound I-4, trans-5-[2-(3-hydroxypiperidin-4-yl)methylaminopyrimidin-4-yl]-3-cyclopropylpyrazolo[1,5-a]pyrimidine], the IC50 was < 1 µM. With `O[C@@H]1CNCC[C@H]1CNc1nccc(-c2ccn3ncc(C4CCC4)c3n2)n1` (relative stereo) [Compound I-5, trans-5-[2-(3-hydroxypiperidin-4-yl)methylaminopyrimidin-4-yl]-3-cyclobutylpyrazolo[1,5-a]pyrimidine] the IC50 was 1 to 5 µM. With `CC(C)c1cnn2ccc(-c3ccnc(NC[C@@H]4CCNC[C@H]4O)n3)nc12` (relative stereo) [Compound I-6, trans-5-[2-(3-hydroxypiperidin-4-yl)methylaminopyrimidin-4-yl]-3-isopropylpyrazolo[1,5-a]pyrimidine] the IC50 was < 1 µM. In the case of `O[C@@H]1CNCC[C@H]1CNc1nccc(-c2ccn3nccc3n2)n1` (relative stereo) [Compound I-7, trans-5-[2-(3-hydroxypiperidin-4-yl)methylaminopyrimidin-4-yl]pyrazolo[1,5-a]pyrimidine], the IC50 is reported as 1 to 5 µM. `c1cc(-c2ccn3ncc(C4CC4)c3n2)nc(N[C@H]2CC[C@H](NC3CCOCC3)CC2)n1` [Compound I-1, trans-N^1-[4-[(3-cyclopropyl)pyrazolo[1,5-a]pyrimidin-5-yl]pyrimidin-2-yl]-N^4-(tetrahydro-2H-pyran-4-yl)cyclohexane-1,4-diamine] showed an IC50 of 1 to 5 µM. Molecule `c1cc(-c2ccn3ncc(C4CCC4)c3n2)nc(N[C@H]2CC[C@H](NC3CCOCC3)CC2)n1` [Compound I-2, trans-N^1-[4-[(3-cyclobutyl)pyrazolo[1,5-a]pyrimidin-5-yl]pyrimidin-2-yl]-N^4-(tetrahydro-2H-pyran-4-yl)cyclohexane-1,4-diamine] has an IC50 of 1 to 5 µM. `CC(C)c1cnn2ccc(-c3ccnc(N[C@H]4CC[C@H](NC5CCOCC5)CC4)n3)nc12` [Compound I-3, trans-N^1-[4-[(3-isopropyl)pyrazolo[1,5-a]pyrimidin-5-yl]pyrimidin-2-yl]-N^4-(tetrahydro-2H-pyran-4-yl)cyclohexane-1,4-diamine] was tested, and the IC50 was < 1 µM. `c1cc(-c2ccn3nccc3n2)nc(NC2CCNCC2)n1` [Compound I-8, trans-5-[2-(piperidin-4-yl)aminopyrimidin-4-yl]pyrazolo[1,5-a]pyrimidine] gave an IC50 of 1 to 5 µM. `N[C@H]1CC[C@@H](Nc2nccc(-c3ccn4nccc4n3)n2)C1` [Compound I-9, (1S, 3R)-[3-[4-[pyrazolo[1,5-a]pyrimidin-5-yl]pyrimidin-2-yl]aminocyclopentan-1-yl]-1,3-diamine] was tested, and the IC50 was < 1 µM. `c1cc(-c2ccn3nccc3n2)nc(N[C@H]2CC[C@H](NC3CCOCC3)CC2)n1` [Compound I-10, trans-N^1-[4-[pyrazolo[1,5-a]pyrimidin-5-yl]pyrimidin-2-yl]-N^4-(tetrahydro-2H-pyran-4-yl)cyclohexane-1,4-diamine] showed an IC50 of 1 to 5 µM. With `N[C@H]1CC[C@H](Nc2nccc(-c3ccn4nccc4n3)n2)C1` [Compound I-11, (1S, 3S)-[3-[4-[pyrazolo[1,5-a]pyrimidin-5-yl]pyrimidin-2-yl]aminocyclopentan-1-yl]-1,3-diamine] the IC50 was < 1 µM. With `Cc1cnn2ccc(-c3ccnc(N[C@H]4CC[C@H](N)C4)n3)nc12` [Compound I-12, (1S, 3S)-[3-[4-[3-methylpyrazolo[1,5-a]pyrimidin-5-yl]pyrimidin-2-yl]aminocyclopentan-1-yl]-1,3-diamine] the IC50 was < 1 µM. Molecule `Cc1cc2nc(-c3ccnc(N[C@H]4CC[C@H](N)C4)n3)ccn2n1` [Compound I-13, (1S, 3S)-[3-[4-[2-methylpyrazolo[1,5-a]pyrimidin-5-yl]pyrimidin-2-yl]aminocyclopentan-1-yl]-1,3-diamine] has an IC50 of 5 to 10 µM. `CC(C)c1cnn2ccc(-c3ccnc(N[C@H]4CC[C@H](N)C4)n3)nc12` [Compound I-14, (1S, 3S)-[3-[4-[3-isopropylpyrazolo[1,5-a]pyrimidin-5-yl]pyrimidin-2-yl]aminocyclopentan-1-yl]-1,3-diamine] was tested, and the IC50 was < 1 µM.
